Laboratory results as given in patent US20250228835A1, “PYRIDINYLOXYPYRIDINES AND RELATED COMPOUNDS AND THEIR USE IN TREATING MEDICAL CONDITIONS” (Rectify Pharmaceuticals, Inc., priority 2024, published 2025).

What was measured:
Assay type in all cases: cell-based
ABCC6 WT = molecular target: T1, ABCC6 WT (Homo sapiens, UniProt O95255); assay: ABCC6 WT assay: HiBit protein expression; conditions: HEK-293 cells transiently expressing HiBit-tagged ABCC6 WT; 24 h treatment; top concentration 20 μM; read-out: ABCC6 WT EC50, Emax
T1 construct: expressed in transfected cells; host or cells: HEK-293 (transient, Lipofectamine 2000)
Method in brief: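 HEK-293 cells transiently transfected with HiBit-tagged human ABCC6 WT cDNA, seeded 24 h post-transfection, treated 24 h at 37° C with ten 2-fold doses (top 20 μM final, 0.15% DMSO). HiBit lytic luminescence reports protein expression; Emax and EC50 derived.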

ABCB4 WT = molecular target: T2, ABCB4 WT (Homo sapiens, UniProt P21439); assay: ABCB4 WT assay: HiBit protein expression; conditions: HEK-293 cells stably expressing HiBit-tagged ABCB4 WT; 24 h treatment; top concentration 30 μM; read-out: ABCB4 WT EC50, Emax
T2 construct: expressed in transfected cells
Method in brief: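 HEK-293 cells stably expressing HiBit-tagged human ABCB4 WT, treated 24 h at 37 °C with 11-dose 3-fold dilutions, top final 30 μM in 0.3% DMSO. HiBit lytic reagent luminescence read after 1 h at 25 °C; Emax and EC50 derived.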

ABCA4 P1380L = molecular target: T3, ABCA4 P1380L (Homo sapiens, UniProt P78363, P1380L); assay: A4 correction dose-response assay: ABCA4 P1380L HiBit protein expression; conditions: HEK-293 cells stably expressing HiBit-tagged ABCA4 P1380L; 24 h treatment; top concentration 30 μM; read-out: ABCA4 P1380L EC50, Emax
T3 construct: expressed in transfected cells
Method in brief: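 Cells transfected with HiBit-tagged human ABCA4 P1380L cDNA were treated for 24 h at 37°C with an eleven-point dilution series (top final 30 μM, 0.3% DMSO).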

T1 sequence (O95255 whole entry): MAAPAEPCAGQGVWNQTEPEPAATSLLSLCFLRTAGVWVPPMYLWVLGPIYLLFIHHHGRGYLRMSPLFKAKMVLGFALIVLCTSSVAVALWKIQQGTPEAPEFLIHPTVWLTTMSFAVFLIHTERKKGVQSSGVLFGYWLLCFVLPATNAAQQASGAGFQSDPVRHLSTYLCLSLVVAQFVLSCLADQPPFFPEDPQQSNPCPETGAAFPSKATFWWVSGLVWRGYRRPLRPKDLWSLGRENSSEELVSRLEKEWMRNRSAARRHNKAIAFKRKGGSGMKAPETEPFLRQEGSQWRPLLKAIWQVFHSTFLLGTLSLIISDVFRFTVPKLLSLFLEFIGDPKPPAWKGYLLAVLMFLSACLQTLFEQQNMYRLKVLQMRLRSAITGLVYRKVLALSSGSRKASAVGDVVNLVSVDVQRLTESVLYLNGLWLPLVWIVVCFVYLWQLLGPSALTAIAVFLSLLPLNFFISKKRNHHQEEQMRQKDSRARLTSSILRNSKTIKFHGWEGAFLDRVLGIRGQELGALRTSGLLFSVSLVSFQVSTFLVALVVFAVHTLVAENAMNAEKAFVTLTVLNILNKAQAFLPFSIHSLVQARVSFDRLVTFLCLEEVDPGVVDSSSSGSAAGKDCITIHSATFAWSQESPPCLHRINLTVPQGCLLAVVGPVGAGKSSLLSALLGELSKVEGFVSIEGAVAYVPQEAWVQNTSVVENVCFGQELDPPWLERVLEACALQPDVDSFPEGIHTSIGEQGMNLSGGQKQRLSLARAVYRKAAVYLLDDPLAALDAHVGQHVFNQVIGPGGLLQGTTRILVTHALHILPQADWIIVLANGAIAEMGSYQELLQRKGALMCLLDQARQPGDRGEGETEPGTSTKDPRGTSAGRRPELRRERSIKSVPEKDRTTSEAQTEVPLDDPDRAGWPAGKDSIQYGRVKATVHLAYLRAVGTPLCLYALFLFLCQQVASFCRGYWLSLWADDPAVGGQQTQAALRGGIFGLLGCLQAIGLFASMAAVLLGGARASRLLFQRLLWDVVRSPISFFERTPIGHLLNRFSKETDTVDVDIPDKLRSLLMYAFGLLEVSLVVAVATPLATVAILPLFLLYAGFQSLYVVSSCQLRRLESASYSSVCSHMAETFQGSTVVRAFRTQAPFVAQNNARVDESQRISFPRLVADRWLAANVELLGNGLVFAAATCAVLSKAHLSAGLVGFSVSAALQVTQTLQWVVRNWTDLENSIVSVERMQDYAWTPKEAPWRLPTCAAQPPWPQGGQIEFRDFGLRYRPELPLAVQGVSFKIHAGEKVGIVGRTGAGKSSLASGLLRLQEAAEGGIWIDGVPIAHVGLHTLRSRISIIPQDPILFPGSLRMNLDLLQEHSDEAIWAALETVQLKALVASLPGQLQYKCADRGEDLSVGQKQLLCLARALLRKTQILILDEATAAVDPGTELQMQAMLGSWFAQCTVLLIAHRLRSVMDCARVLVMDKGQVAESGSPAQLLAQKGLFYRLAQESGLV
T2 sequence (P21439 whole entry): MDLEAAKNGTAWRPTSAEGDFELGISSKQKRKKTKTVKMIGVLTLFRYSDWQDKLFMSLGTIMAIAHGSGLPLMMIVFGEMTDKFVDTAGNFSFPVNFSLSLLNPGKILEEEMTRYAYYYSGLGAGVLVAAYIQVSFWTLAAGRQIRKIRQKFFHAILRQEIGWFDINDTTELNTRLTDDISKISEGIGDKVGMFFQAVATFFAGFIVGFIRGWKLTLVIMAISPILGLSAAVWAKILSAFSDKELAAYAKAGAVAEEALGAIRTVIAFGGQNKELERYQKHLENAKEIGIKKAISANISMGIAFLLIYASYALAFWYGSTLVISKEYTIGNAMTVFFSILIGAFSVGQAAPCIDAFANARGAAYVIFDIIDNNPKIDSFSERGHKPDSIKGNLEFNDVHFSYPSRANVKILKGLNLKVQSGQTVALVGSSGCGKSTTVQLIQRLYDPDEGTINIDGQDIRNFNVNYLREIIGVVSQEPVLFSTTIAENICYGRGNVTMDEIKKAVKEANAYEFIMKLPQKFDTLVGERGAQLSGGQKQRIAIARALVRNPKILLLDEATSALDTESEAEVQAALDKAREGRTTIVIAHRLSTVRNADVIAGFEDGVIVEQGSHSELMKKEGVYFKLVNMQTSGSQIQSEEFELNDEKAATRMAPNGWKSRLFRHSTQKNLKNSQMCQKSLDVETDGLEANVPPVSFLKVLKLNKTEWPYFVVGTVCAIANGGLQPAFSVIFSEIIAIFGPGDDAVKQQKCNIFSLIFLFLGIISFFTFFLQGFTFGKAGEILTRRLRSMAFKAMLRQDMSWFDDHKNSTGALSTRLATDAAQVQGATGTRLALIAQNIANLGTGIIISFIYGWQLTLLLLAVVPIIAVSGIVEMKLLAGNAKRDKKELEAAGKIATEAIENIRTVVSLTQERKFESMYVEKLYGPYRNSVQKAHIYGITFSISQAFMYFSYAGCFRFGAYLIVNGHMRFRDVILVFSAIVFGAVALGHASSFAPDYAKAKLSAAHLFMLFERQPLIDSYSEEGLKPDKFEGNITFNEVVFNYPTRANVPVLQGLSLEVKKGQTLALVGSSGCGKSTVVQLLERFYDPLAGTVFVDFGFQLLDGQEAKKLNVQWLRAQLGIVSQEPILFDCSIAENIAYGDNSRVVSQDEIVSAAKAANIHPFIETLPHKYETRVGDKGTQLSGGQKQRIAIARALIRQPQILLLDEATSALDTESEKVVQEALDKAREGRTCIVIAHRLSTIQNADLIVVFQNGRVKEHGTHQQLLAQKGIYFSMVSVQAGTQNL
T3 sequence (P78363 whole entry P1380L): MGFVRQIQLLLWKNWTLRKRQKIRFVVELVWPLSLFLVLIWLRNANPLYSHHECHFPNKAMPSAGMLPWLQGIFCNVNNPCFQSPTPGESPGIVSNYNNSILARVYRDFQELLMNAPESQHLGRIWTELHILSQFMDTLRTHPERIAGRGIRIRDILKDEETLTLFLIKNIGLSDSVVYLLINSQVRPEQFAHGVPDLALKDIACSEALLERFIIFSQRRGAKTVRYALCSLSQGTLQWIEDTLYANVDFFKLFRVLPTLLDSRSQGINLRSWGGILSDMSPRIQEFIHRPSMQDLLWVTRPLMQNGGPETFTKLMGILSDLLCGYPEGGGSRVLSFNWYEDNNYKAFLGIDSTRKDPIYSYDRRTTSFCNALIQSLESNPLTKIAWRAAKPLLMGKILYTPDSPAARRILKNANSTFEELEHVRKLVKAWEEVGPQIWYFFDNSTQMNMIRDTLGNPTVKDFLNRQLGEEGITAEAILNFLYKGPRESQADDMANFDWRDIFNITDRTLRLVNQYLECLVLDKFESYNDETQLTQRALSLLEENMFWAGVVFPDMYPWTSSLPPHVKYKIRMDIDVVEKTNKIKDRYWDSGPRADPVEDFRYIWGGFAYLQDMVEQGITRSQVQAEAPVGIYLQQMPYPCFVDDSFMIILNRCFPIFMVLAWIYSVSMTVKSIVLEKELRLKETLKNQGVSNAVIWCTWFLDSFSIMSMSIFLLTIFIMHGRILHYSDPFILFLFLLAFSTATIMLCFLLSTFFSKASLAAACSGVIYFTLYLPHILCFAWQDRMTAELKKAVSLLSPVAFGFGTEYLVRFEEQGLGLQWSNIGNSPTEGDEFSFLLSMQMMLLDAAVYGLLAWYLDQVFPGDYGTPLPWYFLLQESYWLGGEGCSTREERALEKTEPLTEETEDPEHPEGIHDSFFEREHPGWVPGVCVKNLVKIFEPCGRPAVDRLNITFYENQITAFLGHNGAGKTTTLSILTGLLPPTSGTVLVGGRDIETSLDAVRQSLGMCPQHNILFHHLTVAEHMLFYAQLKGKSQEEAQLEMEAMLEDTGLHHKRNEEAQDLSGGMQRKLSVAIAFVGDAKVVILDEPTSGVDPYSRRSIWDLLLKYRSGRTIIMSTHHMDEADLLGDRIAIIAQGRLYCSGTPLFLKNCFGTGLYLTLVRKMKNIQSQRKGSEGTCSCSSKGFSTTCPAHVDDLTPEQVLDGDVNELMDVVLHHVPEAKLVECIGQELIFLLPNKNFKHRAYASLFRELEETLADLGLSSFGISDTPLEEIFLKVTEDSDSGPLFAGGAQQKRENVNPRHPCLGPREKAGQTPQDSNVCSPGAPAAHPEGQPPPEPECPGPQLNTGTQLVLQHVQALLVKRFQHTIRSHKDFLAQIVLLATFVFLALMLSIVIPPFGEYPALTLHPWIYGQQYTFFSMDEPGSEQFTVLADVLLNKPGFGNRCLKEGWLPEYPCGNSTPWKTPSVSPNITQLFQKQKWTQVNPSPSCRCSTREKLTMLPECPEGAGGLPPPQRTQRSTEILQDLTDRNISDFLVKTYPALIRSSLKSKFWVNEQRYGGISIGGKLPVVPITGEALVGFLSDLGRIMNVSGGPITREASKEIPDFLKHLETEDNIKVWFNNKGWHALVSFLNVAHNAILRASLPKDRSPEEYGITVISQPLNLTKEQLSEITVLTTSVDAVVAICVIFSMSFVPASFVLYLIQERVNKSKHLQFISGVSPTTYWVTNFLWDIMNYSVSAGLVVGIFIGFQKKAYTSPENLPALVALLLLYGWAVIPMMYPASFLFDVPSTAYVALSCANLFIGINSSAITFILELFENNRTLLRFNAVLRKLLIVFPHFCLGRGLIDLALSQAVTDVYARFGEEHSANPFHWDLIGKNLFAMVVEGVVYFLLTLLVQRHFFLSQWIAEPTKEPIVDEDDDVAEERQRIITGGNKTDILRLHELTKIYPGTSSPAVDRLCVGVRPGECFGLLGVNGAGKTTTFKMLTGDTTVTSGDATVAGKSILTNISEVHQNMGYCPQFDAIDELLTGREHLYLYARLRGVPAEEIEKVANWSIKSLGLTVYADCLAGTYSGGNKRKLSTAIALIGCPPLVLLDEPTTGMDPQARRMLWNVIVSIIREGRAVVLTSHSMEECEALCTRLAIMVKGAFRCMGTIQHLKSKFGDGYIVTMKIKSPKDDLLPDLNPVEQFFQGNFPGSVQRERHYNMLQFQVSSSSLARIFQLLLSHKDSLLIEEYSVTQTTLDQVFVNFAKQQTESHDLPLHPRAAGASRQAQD

## Cc1cc(C)c(Oc2nc(-c3cncc(Cl)c3)cnc2NS(C)(=O)=O)c(C)n1 [Compound I-260]
ABCC6 WT
  EC50: 1000 to 10000 nM
ABCB4 WT
  EC50: ≥ 25000 nM
ABCA4 P1380L
  EC50: > 25000 nM

## Cc1cc(C2CC2)nc(C)c1Oc1nc(-c2cncc(S(C)(=O)=O)c2)ccc1NS(C)(=O)=O [Compound I-263]
ABCC6 WT
  EC50: 1000 to 10000 nM
ABCB4 WT
  EC50: 1000 to 10000 nM
ABCA4 P1380L
  EC50: 1000 to 10000 nM

## Cc1cc(C2CC2)nc(C)c1Oc1nc(-c2cncc(C#N)c2)ccc1NS(=O)(=O)C1CC1 [Compound I-264]
ABCC6 WT
  EC50: ≥ 25000 nM
ABCB4 WT
  EC50: < 1000 nM
ABCA4 P1380L
  EC50: < 1000 nM

## CNS(=O)(=O)c1ccc(-c2cncc(C#N)c2)nc1Oc1c(C)cc(C)nc1C [Compound I-265]
ABCC6 WT
  EC50: 1000 to 10000 nM
ABCB4 WT
  EC50: < 1000 nM
ABCA4 P1380L
  EC50: 1000 to 10000 nM

## Cc1cc(C)c(Oc2nc(-c3cncc(C#N)c3)ccc2NS(=O)(=O)C2CC2)c(C)n1 [Compound I-266]
ABCC6 WT
  EC50: < 1000 nM
ABCB4 WT
  EC50: < 1000 nM
ABCA4 P1380L
  EC50: < 1000 nM

## Cc1cc(C)c(Oc2nc(-c3cncc(C#N)c3)ccc2NS(=O)(=O)C2COC2)c(C)c1 [Compound I-267]
ABCC6 WT
  EC50: < 1000 nM
ABCB4 WT
  EC50: < 1000 nM
ABCA4 P1380L
  EC50: < 25000 nM

## Cc1cc(C)c(Oc2nc(-c3cncc(C#N)c3)ccc2NS(C)(=O)=O)c(C2CC2)n1 [Compound I-268]
ABCC6 WT
  EC50: < 1000 nM
ABCB4 WT
  EC50: < 1000 nM
ABCA4 P1380L
  EC50: < 1000 nM

## Cc1cc(C)c(Oc2nc(-c3ccc(C#N)nc3C)ccc2NS(C)(=O)=O)c(C)n1 [Compound I-269]
ABCC6 WT
  EC50: 1000 to 10000 nM
ABCB4 WT
  EC50: < 1000 nM
ABCA4 P1380L
  EC50: 1000 to 10000 nM

## Cc1cc(C)c(Oc2nc(-c3cc(C#N)cnc3C)ccc2NS(C)(=O)=O)c(C)n1 [Compound I-270]
ABCC6 WT
  EC50: 1000 to 10000 nM
ABCB4 WT
  EC50: < 25000 nM
ABCA4 P1380L
  EC50: < 25000 nM

## Cc1cc(C2CC2)cc(C)c1Oc1nc(-c2cncc(C#N)c2)ccc1NS(C)(=O)=O [Compound I-271]
ABCC6 WT
  EC50: < 1000 nM
ABCB4 WT
  EC50: 1000 to 10000 nM
ABCA4 P1380L
  EC50: < 1000 nM

## Cc1cc(C)c(Oc2nc(-n3cnc(C#N)c3)ccc2N(C)S(C)(=O)=O)c(C)c1 [Compound I-272]
ABCC6 WT
  EC50: 1000 to 10000 nM
ABCB4 WT
  EC50: < 25000 nM
ABCA4 P1380L
  EC50: 1000 to 10000 nM

## Cc1cc(C)c(Oc2nc(-n3cnc(C#N)c3)ccc2NS(C)(=O)=O)c(C)c1 [Compound I-273]
ABCC6 WT
  EC50: < 1000 nM
ABCB4 WT
  EC50: < 25000 nM
ABCA4 P1380L
  EC50: < 25000 nM

## Cc1cc(C)c(Oc2nc(-n3cc(C#N)cn3)ccc2NS(C)(=O)=O)c(C)c1 [Compound I-274]
ABCC6 WT
  EC50: < 1000 nM
ABCB4 WT
  EC50: < 25000 nM
ABCA4 P1380L
  EC50: < 1000 nM

## Cc1cc(C)c(Oc2nc(-c3cncc(C#N)c3)cnc2NS(C)(=O)=O)c(C)c1 [Compound I-275]
ABCC6 WT
  EC50: < 1000 nM
ABCB4 WT
  EC50: ≥ 25000 nM
ABCA4 P1380L
  EC50: < 25000 nM

## Cc1cc(C)c(Oc2nc(-c3cncc(C#N)c3)ccc2NS(=O)(=O)C(C)C)c(C)n1 [Compound I-276]
ABCC6 WT
  EC50: < 1000 nM
ABCB4 WT
  EC50: < 1000 nM
ABCA4 P1380L
  EC50: < 1000 nM

## Cc1cc(C)c(Oc2nc(-c3cncc(Cl)c3)cnc2NS(C)(=O)=O)c(C)c1 [Compound I-277]
ABCC6 WT
  EC50: < 1000 nM
ABCB4 WT
  EC50: ≥ 25000 nM
ABCA4 P1380L
  EC50: < 25000 nM

## Cc1cc(C)c(Oc2nc(-c3cncc(S(C)(=O)=O)c3)ccc2NS(C)(=O)=O)c(C)c1 [Compound I-278]
ABCC6 WT
  EC50: 1000 to 10000 nM
ABCB4 WT
  EC50: ≥ 25000 nM
ABCA4 P1380L
  EC50: 1000 to 10000 nM

## Cc1cc(C)c(Oc2nc(-c3cncc(C#N)c3)ccc2S(C)(=N)=O)c(C)c1 (stereo not drawn) [Compound I-279]
ABCC6 WT
  EC50: < 1000 nM
ABCB4 WT
  EC50: < 1000 nM
ABCA4 P1380L
  EC50: < 1000 nM

## Cc1cc(C)c(Oc2nc(-c3cncc(C#N)c3)ccc2S(N)(=O)=O)c(C)c1 [Compound I-280]
ABCC6 WT
  EC50: < 1000 nM
ABCB4 WT
  EC50: < 1000 nM
ABCA4 P1380L
  EC50: < 1000 nM

## CNS(=O)(=O)c1ccc(-c2cncc(C#N)c2)nc1Oc1c(C)cc(C)cc1C [Compound I-281]
ABCC6 WT
  EC50: < 1000 nM
ABCB4 WT
  EC50: < 1000 nM
ABCA4 P1380L
  EC50: < 1000 nM

## Cc1cc(C)c(Oc2nc(-c3cc(Cl)cnc3C)ccc2NS(C)(=O)=O)c(C)n1 [Compound I-282]
ABCC6 WT
  EC50: 1000 to 10000 nM
ABCB4 WT
  EC50: ≥ 25000 nM
ABCA4 P1380L
  EC50: > 25000 nM

## Cc1cc(C)c(Oc2nc(-c3cn(C)nc3C)ccc2NS(C)(=O)=O)c(C)c1 [Compound I-283]
ABCC6 WT
  EC50: < 1000 nM
ABCB4 WT
  EC50: < 1000 nM
ABCA4 P1380L
  EC50: < 1000 nM

## Cc1cc(C)c(Oc2nc(-c3cncc(C#N)c3)ncc2NS(C)(=O)=O)c(C)n1 [Compound I-284]
ABCC6 WT
  EC50: < 1000 nM
ABCB4 WT
  EC50: < 1000 nM
ABCA4 P1380L
  EC50: < 25000 nM

## Cc1cc(C)c(Oc2nc(N3CCN(C(=O)C4CC4)CC3)ccc2S(N)(=O)=O)c(C)c1 [Compound I-285]
ABCC6 WT
  EC50: 1000 to 10000 nM
ABCB4 WT
  EC50: ≥ 25000 nM
ABCA4 P1380L
  EC50: > 25000 nM

## Cc1cc(C2CC2)nc(C2CC2)c1Oc1nc(-c2cncc(C#N)c2)ccc1S(=N)(=O)C1CC1 (stereo not drawn) [Compound I-317]
ABCC6 WT
  EC50: < 1000 nM
ABCB4 WT
  EC50: < 1000 nM
ABCA4 P1380L
  EC50: > 25000 nM

## Cc1cc(C(F)F)cc(C2CC2)c1Oc1nc(-c2cncc(C#N)c2)ccc1S(=N)(=O)C1CC1 (stereo not drawn) [Compound I-319]
ABCC6 WT
  EC50: < 1000 nM
ABCB4 WT
  EC50: 1000 to 10000 nM
ABCA4 P1380L
  EC50: > 25000 nM

## Cc1cc(C(F)F)nc(C2CC2)c1Oc1nc(-c2cncc(C#N)c2)ccc1S(=O)(=O)NC1CCOCC1 [Compound I-320]
ABCC6 WT
  EC50: 1000 to 10000 nM
ABCB4 WT
  EC50: < 25000 nM
ABCA4 P1380L
  EC50: < 25000 nM

## Cc1cc(C(F)F)nc(C2CC2)c1Oc1nc(-c2cncc(C#N)c2)ccc1S(=O)(=O)NC1COC1 [Compound I-321]
ABCC6 WT
  EC50: 1000 to 10000 nM
ABCB4 WT
  EC50: 1000 to 10000 nM
ABCA4 P1380L
  EC50: < 25000 nM

## Cc1cc(C2CC2)nc(C2CC2)c1Oc1nc(-c2cncc(C#N)c2)ccc1S(=O)(=O)NC1CCOCC1 [Compound I-322]
ABCC6 WT
  EC50: 1000 to 10000 nM
ABCB4 WT
  EC50: < 25000 nM
ABCA4 P1380L
  EC50: 1000 to 10000 nM

## Cc1cc(C)c(Oc2[nH]c(-c3cncc(C#N)c3)cc(=O)c2NS(C)(=O)=O)c(C)n1 [Compound I-325]
ABCC6 WT
  EC50: ≥ 25000 nM
ABCB4 WT
  EC50: < 25000 nM
ABCA4 P1380L
  EC50: 1000 to 10000 nM

## Cc1cc(C)c(Oc2nc(-c3cc(C#N)c[nH]c3=O)ccc2NS(C)(=O)=O)c(C)n1 [Compound I-326]
ABCC6 WT
  EC50: 1000 to 10000 nM
ABCB4 WT
  EC50: < 25000 nM
ABCA4 P1380L
  EC50: < 1000 nM

## Cc1cc(C)c(Oc2nc(-c3cncc(C#N)c3)c(O)cc2NS(C)(=O)=O)c(C)n1 [Compound I-327]
ABCC6 WT
  EC50: < 1000 nM
ABCB4 WT
  EC50: < 1000 nM
ABCA4 P1380L
  EC50: < 1000 nM
